Reference: patent US20250134887A1, “METHODS OF TREATING PROSTATE CANCER” (AstraZeneca AB, priority 2022, published 2025)

Test system: patients with mCRPC
Test: PROpel phase III trial: safety, adverse events (CTCAE v.4.03)
Type: in vivo, human
Description: Trial design and interventions. This was a double-blind, placebo-controlled, phase Ill trial. Eligible patients were randomized (1:1) to treatment with abiraterone acetate (1000 mg once daily) in combination with either olaparib (300 mg twice daily) or placebo. All patients received prednisone or prednisolone (5 mg twice daily) as per the abiraterone acetate label requirement. Randomization was stratified by distant metastasis type (bone only/visceral/other) at baseline and by docetaxel treatment at the mHSPC stage of disease (yes or no). Study treatment continued until objective imaging-based progressive disease assessed by investigator (using Response Evaluation Criteria in Solid Tumors [RECIST 1.1] for soft tissue lesions and Prostate Cancer Working Group-3 [PCWG-3] criteria for bone lesions), unacceptable toxicity, or withdrawal of consent. Following objective disease progression, further treatment options were at the discretion of the investigator. Patients could continue study treatment if the investigator believed, that the patient could continue to receive clinical benefit, was not experiencing serious toxicity and there was no available better alternative treatment. Crossover from placebo to receive olaparib in combination with abiraterone acetate was not allowed.
Safety was assessed through reporting of adverse events and serious adverse events (according to Common Terminology Criteria for Adverse Events v.4.03) based on physical examination findings, vital signs, ECG findings and laboratory test results.
Statistical analysis. Efficacy was analyzed for the intention-to-treat population and safety was analyzed for all patients who received any amount of abiraterone acetate, olaparib, or placebo. Patients who received at least one dose of olaparib were included in the abiraterone acetate and olaparib arm.

[1] = male, human, in vivo, 15.7 months

CC(=O)O[C@H]1CC[C@@]2(C)C(=CC[C@@H]3[C@@H]2CC[C@]2(C)C(c4cccnc4)=CC[C@@H]32)C1 [abiraterone acetate and placebo, (3β)-17-(3-pyridinyl) androsta-5,16-dien-3-yl acetate]
Anemia, % of patients (All Grades): (16.4) % | Anemia, number of patients (All Grades): 65 | Any adverse event, % of patients (All Grades): (94.9) % | Any adverse event, number of patients (All Grades): 376 | Arthralgia, % of patients (All Grades): (17.7) % | Arthralgia, number of patients (All Grades): 70 | Back pain, % of patients (All Grades): (18.4) % | Back pain, number of patients (All Grades): 73 | Cardiac failure adverse events, % of patients (All Grades): (1.3) % | Cardiac failure adverse events, number of patients (All Grades): 5 | Constipation, % of patients (All Grades): (13.9) % | Constipation, number of patients (All Grades): 55 | Decreased appetite, % of patients (All Grades): (5.8) % | Decreased appetite, number of patients (All Grades): 23 | Diarrhea, % of patients (All Grades): (9.3) % | Diarrhea, number of patients (All Grades): 37 | Dizziness, % of patients (All Grades): (6.3) % | Dizziness, number of patients (All Grades): 25 | Embolic and thrombotic arterial adverse events, % of patients (All Grades): (2.5) % | Embolic and thrombotic arterial adverse events, number of patients (All Grades): 10 | Fatigue or asthenia, % of patients (All Grades): (28.3) % | Fatigue or asthenia, number of patients (All Grades): 112 | Hypertension, % of patients (All Grades): (16.4) % | Hypertension, number of patients (All Grades): 65 | Nausea, % of patients (All Grades): (12.6) % | Nausea, number of patients (All Grades): 50 | Peripheral edema, % of patients (All Grades): (11.4) % | Peripheral edema, number of patients (All Grades): 45 | Urinary tract infection, % of patients (All Grades): (7.8) % | Urinary tract infection, number of patients (All Grades): 31 | Vomiting, % of patients (All Grades): (9.1) % | Vomiting, number of patients (All Grades): 36 | Anemia, % of patients (Grade ≥ 3): 3.3% | Anemia, number of patients (Grade ≥ 3): 13 | Any adverse event, % of patients (Grade ≥ 3): (38.4) % | Any adverse event, number of patients (Grade ≥ 3): 152 | Arthralgia, % of patients (Grade ≥ 3): (0.5) % | Arthralgia, number of patients (Grade ≥ 3): 2 | Back pain, % of patients (Grade ≥ 3): (1.0) % | Back pain, number of patients (Grade ≥ 3): 4 | COVID-19, % of patients (Grade ≥ 3): 2.0% | COVID-19, cases (Grade ≥ 3): 8 | Constipation, % of patients (Grade ≥ 3): (0.3) % | Constipation, number of patients (Grade ≥ 3): 1 | Decreased appetite, number of patients (Grade ≥ 3): 0 | Diarrhea, % of patients (Grade ≥ 3): (0.3) % | Diarrhea, number of patients (Grade ≥ 3): 1 | Dizziness, number of patients (Grade ≥ 3): 0 | Fatigue or asthenia, % of patients (Grade ≥ 3): (1.5) % | Fatigue or asthenia, number of patients (Grade ≥ 3): 6 | Hypertension, % of patients (Grade ≥ 3): (3.3) % | Hypertension, number of patients (Grade ≥ 3): 13 | Nausea, % of patients (Grade ≥ 3): (0.3) % | Nausea, number of patients (Grade ≥ 3): 1 | Peripheral edema, % of patients (Grade ≥ 3): (0.3) % | Peripheral edema, number of patients (Grade ≥ 3): 1 | Urinary tract infection, % of patients (Grade ≥ 3): (1.0) % | Urinary tract infection, number of patients (Grade ≥ 3): 4 | Vomiting, % of patients (Grade ≥ 3): (0.3) % | Vomiting, number of patients (Grade ≥ 3): 1 | Anemia, % of patients (Grade ≥ 3, listed as Abiraterone and Placebo): (3.3) % | COVID-19, % of patients (all grades): 4.5% | COVID-19, cases (all grades): 18 | Any serious adverse event, % of patients (human, in vivo, 15.7 months): (27.0) % | Any serious adverse event, number of patients (human, in vivo, 15.7 months): 107 | Death due to an adverse event, % of patients (human, in vivo, 15.7 months): (4.3) % | Death due to an adverse event, number of patients (human, in vivo, 15.7 months): 17 | Discontinuation of abiraterone acetate due to an adverse event, % of patients (human, in vivo, 15.7 months): (8.8) % | Discontinuation of abiraterone acetate due to an adverse event, number of patients (human, in vivo, 15.7 months): 35 | Discontinuation of olaparib/placebo due to an adverse event, % of patients (human, in vivo, 15.7 months): (7.8) % | Discontinuation of olaparib/placebo due to an adverse event, number of patients (human, in vivo, 15.7 months): 31 | Dose reduction of abiraterone acetate due to an adverse event, % of patients (human, in vivo, 15.7 months): (4.3) % | Dose reduction of abiraterone acetate due to an adverse event, number of patients (human, in vivo, 15.7 months): 17 | Dose reduction of olaparib/placebo due to an adverse event, % of patients (human, in vivo, 15.7 months): (5.6) % | Dose reduction of olaparib/placebo due to an adverse event, number of patients (human, in vivo, 15.7 months): 22 | Interruption of abiraterone acetate because of an adverse event, % of patients (human, in vivo, 15.7 months): (22.0) % | Interruption of abiraterone acetate because of an adverse event, number of patients (human, in vivo, 15.7 months): 87 | Interruption of olaparib/placebo because of an adverse event, % of patients (human, in vivo, 15.7 months): (25.3) % | Interruption of olaparib/placebo because of an adverse event, number of patients (human, in vivo, 15.7 months): 100 | Deep-vein thrombosis, patients (in vivo): three | pulmonary embolism, cases (in vivo): seven | Deep-vein thrombosis, % of patients [1]: 0.8% | new primary cancers, % of patients [1]: 2.5% | new primary cancers, reports [1]: 10 | pulmonary embolism, % of patients [1]: 1.8%
